Source: patent publication US9988644B2, “Compounds for improved viral transduction” (bluebird bio, Inc., priority 2011, dated 2018)

Assays:
CD34+ cells [1] = test: 7-Day liquid culture, FACS for GFP after transduction with GFP+ lentivirus in presence of dmPGE2; assay type: cell-based, human; conditions: for % Positive (GFP): ~1 week in culture
Experimental: One vial of CD34+ cells (AllCells) were thawed by incubating at 37° C. for 1-2 minutes and contents were transferred to 10 mL Stem Cell Growth Media (hereafter referred to as SCGM) in a 15-mL conical tube. Cells were spun for 5 minutes at 1500 RPM in a standard tabletop centrifuge, resuspended in 10 mL SCGM and counted on a hemacytometer. A volume correlating with an appropriate number of cells was transferred to a fresh 15-mL conical tube, and again spun for 5 minutes at 1500 RPM. Cells were resuspended to the desired cell concentration in SCGM+1× cytokines (100 ng/mL SCF, 100 ng/mL TPO, 100 ng/mL FltL, and 30 ng/mL IL-3), and plated on a sterile non-adherent surface at 37° C. in a standard humidified tissue culture incubator (5% CO2).
(§1) Pre-stimulated cells (Example 1) were counted after 18-24 hours of culture. The cells were collected and spun for 5 minutes at 1500 RPM. 1.2×10^6 pre-stimulated CD34^+ cells were resuspended in 60 uL 10× cytokines (1000 ng/mL SCF, 1000 ng/mL TPO, 1000 ng/mL FltL, and 300 ng/mL IL-3), 7.8 uL protamine sulfate, 111 uL viral supernatant, and 361.2 uL SCGM. 90 uL cell/virus suspension (about 200,000 cells) was added to each well of a standard non-adherent 96-well plate. dmPGE2 was added during this viral transduction step at a final concentration of 100 uM, 50 uM, 25 uM, 12.5 uM, 1 uM, or 0 uM.
Aliquots of 10 mM dmPGE2 in DMSO were prepared from 1 mg previously processed dmPGE2 (Cayman Chemicals). Briefly, air was pipetted into the vial of dmPGE2 until methyl acetate was evaporated. 263 uL DMSO was added to the PGE2 remaining in the vial, and aliquots of 25 uL were added to 1.5 mL Eppendorf tubes and stored at −80° C. 10× working stock solutions were prepared by serial dilution of dmPGE2 in SCGM, and were then added to cells at appropriate working concentrations, according to Table 2. Cells were then incubated at 37° C. in a standard humidified tissue culture incubator (5% CO2).
After 24 hours of culture with virus and dmPGE2, cells were washed prior to subsequent functional validation assays. Washing was performed by transferring cells to a 96-well U-bottom plate and spinning for 5 minutes at 1500 RPM in a standard tabletop centrifuge. Media was aspirated and cells were resuspended in 200 uL SCGM. Cells were spun again for 5 minutes at 1500 RPM and media was aspirated. Cells were again resuspended in 200 uL SCGM then spun for 5 minutes at 1500 RPM, and again the media was aspirated. Particular functional validation assays are described below.
(§2) Washed cells were resuspended in 200 uL SCGM+1× cytokines (as described in Example 1) and transferred to a standard 12-well non-adherent tissue culture plate containing an additional 800 uL SCGM+1× cytokines Cells were maintained for an additional 6 days in a standard humidified tissue culture incubator (5% CO2) and then subjected Vector Copy Number analysis (Example 5) and FACS analysis. For FACS analysis, cells were assayed for the presence of a virally-encoded transgene, green fluorescent protein (GFP). The frequency of the virally-labeled cells within the pool of cultured cells was quantified as the frequency of GFP+ cells within the population. The mean fluorescence intensity of labeled cells was quantified.
Tables 3A-C indicate the dose-response of dmPGE2 in promoting viral transduction of CD34+ cells for three separate experiments. CD34+ cells were thawed and pre-stimulated with SCF, TPO, FltL, and IL3, then transduced (A) with GFP+ lentivirus at a multiplicity of infection of 25, (B) with GFP+ lentivirus at a multiplicity of infection of 5, or (C) transduced with an ALD (ABCD1)-expressing lentivirus at a multiplicity of infection of 25. Cells were exposed to dmPGE2 during the viral transduction step (24-48 hours of culture). Cells were then washed and analyzed by flow cytometry and PCR after approximately 1 week in culture. […]

CD34+ cells [2] = test: Vector Copy Number analysis (qRT-PCR, viral LTR vs human beta-actin) after GFP+ lentivirus transduction; assay type: cell-based
Experimental: as §1, §2
Briefly, total genomic DNA was isolated from cells through standard protocols (for example, through DNEasy columns from Qiagen). Genomic DNA was subjected to quantitative real-time polymerase chain reaction (qRT-PCR) with TaqMan probes for viral LTR and human beta-actin. The Ct values for viral signal and beta-actin signal were normalized to a standardized control, and the number of viral copies per copy of beta actin were calculated. A linear relationship between the vector copy number and the mean fluorescence intensity (Example 4) was observed when a viral construct that encodes GFP was used.
Tables 3A-C indicate the dose-response of dmPGE2 in promoting viral transduction of CD34+ cells for three separate experiments. CD34+ cells were thawed and pre-stimulated with SCF, TPO, FltL, and IL3, then transduced (A) with GFP+ lentivirus at a multiplicity of infection of 25, (B) with GFP+ lentivirus at a multiplicity of infection of 5, or (C) transduced with an ALD (ABCD1)-expressing lentivirus at a multiplicity of infection of 25. Cells were exposed to dmPGE2 during the viral transduction step (24-48 hours of culture). Cells were then washed and analyzed by flow cytometry and PCR after approximately 1 week in culture. The percentage of cells positive for GFP (A, B) or ALD (C) via FACS staining is indicated, along with the mean fluorescent intensity (MFI) and vector copy number (VCN) (A, B).

[3] = dmPGE2 12.5 uM during transduction, GFP MOI 5
[4] = dmPGE2 12.5 uM during transduction, GFP MOI 25
[5] = dmPGE2 25 uM during transduction, GFP MOI 5
[6] = dmPGE2 50 uM during transduction, GFP MOI 5
[7] = dmPGE2 50 uM during transduction, GFP MOI 25
[8] = dmPGE2 100 uM during transduction, GFP MOI 5
[9] = dmPGE2 100 uM during transduction, GFP MOI 25

## CCCCC(C)(C)[C@H](O)/C=C/[C@H]1[C@H](O)CC(=O)[C@@H]1C/C=C\CCCC(=O)O [dmPGE2, 16,16-dimethyl PGE2]
CD34+ cells [1]; dmPGE2 12.5 uM during transduction (24-48 hours of culture), GFP MOI 5
  % Positive (GFP): 17.84%
CD34+ cells [1]; dmPGE2 12.5 uM during transduction (24-48 hours of culture), GFP MOI 25
  % Positive (GFP): 54.71%
CD34+ cells [1]; [3]
  MFI (mean fluorescent intensity): 530,218.50
CD34+ cells [1]; [4]
  MFI (mean fluorescent intensity): 759,442.75
CD34+ cells [1]; dmPGE2 25 uM during transduction (24-48 hours of culture), GFP MOI 5
  % Positive (GFP): 18.69%
CD34+ cells [1]; dmPGE2 25 uM during transduction (24-48 hours of culture), GFP MOI 25
  % Positive (GFP): 59.99%
CD34+ cells [1]; [5]
  MFI (mean fluorescent intensity): 562,428.00
CD34+ cells [1]; dmPGE2 50 uM during transduction (24-48 hours of culture), GFP MOI 5
  % Positive (GFP): 36.80%
CD34+ cells [1]; dmPGE2 50 uM during transduction (24-48 hours of culture), GFP MOI 25
  % Positive (GFP): 67.62%
CD34+ cells [1]; [6]
  MFI (mean fluorescent intensity): 656,703.50
CD34+ cells [1]; [7]
  MFI (mean fluorescent intensity): 977,806.75
CD34+ cells [1]; dmPGE2 100 uM during transduction (24-48 hours of culture), GFP MOI 5
  % Positive (GFP): 42.97%
CD34+ cells [1]; dmPGE2 100 uM during transduction (24-48 hours of culture), GFP MOI 25
  % Positive (GFP): 81.53%
CD34+ cells [1]; [8]
  MFI (mean fluorescent intensity): 732,716.25
CD34+ cells [1]; [9]
  MFI (mean fluorescent intensity): 1,513,504.00
CD34+ cells [2]; [3]
  VCN (vector copy number): 0.18
CD34+ cells [2]; [4]
  VCN (vector copy number): 1.5
CD34+ cells [2]; [5]
  VCN (vector copy number): 0.21
CD34+ cells [2]; dmPGE2 25 uM during transduction, GFP MOI 25
  VCN (vector copy number): 1.7
CD34+ cells [2]; [6]
  VCN (vector copy number): 0.715
CD34+ cells [2]; [7]
  VCN (vector copy number): 2.2
CD34+ cells [2]; [8]
  VCN (vector copy number): 0.83
CD34+ cells [2]; [9]
  VCN (vector copy number): 3.55
